# Assay results taken from patent publication US20250277213A1, “COMPOSITIONS AND METHODS RELATED TO MULTIPLE MYELOMA-ASSOCIATED LONG NONCODING RNAS” (Washington University, priority 2024, published 2025).
# Entries after “also recorded” stand apart in the source; their conditions may differ.
# Assays:
# Type in all cases: cell-based
# LINC01432 [1] = test: LINC01432 expression in U266B1 cells treated with standard drugs; conditions: FIG. 8B, 8C
# LINC01432 [2] = test: mFISH of LINC01432 in U266B1 cells treated with high-dose melphalan
# Experimental: RNAScope was performed as previously described, with some modifications using RNAscope 2.5 HD Reagent Kit Red assay combined with Immunohistochemistry (Advanced Cell Diagnostics [ACD], Catalog #323180 and #322372) according to manufacturer's instructions. Briefly, bone marrow aspirates or isolated tumors were applied to slides were baked in a dry air oven for one hour at 60° C., deparaffinized (Xylene for five minutes twice, followed by 100% ethanol for two minutes twice), hydrogen peroxide was applied for 10 minutes at room temperature, and co-detection target retrieval was performed using Steamer (BELLA) for twenty minutes and PBS-T washing. Slides were then incubated overnight with CUGBP2 (CELF2) antibody (Protein Tech, Cat #12921-1-AP) in a HybEz Slide Rack with damp humidifying paper and incubated overnight at 4° C. The next day, slides were washed in PBS-T then post-primary fixation was performed by submerging slides in 10% NBF for 30 minutes at room temperature. […]
# Analysis of mFISH and IHC images was performed by comparing expression of LINC01432 or CELF2 between different cell lines or tissues and simultaneously verifying their cellular localization or intensity of expression. We first visualized our target RNA molecules using an EVOS M5000 imaging system and quantified targets with QuPath Software v0.5.1 to obtain cell-count per region and number of spots per cell data. […]
# [3] = test system: LINC01432 binding to CELF2; test: iCLIP RT-qPCR of CELF2 binding to LINC01432 in U266B1 cells treated with melphalan; conditions: high-dose melphalan for 48 hours, FIG. 16B
# Experimental: Cells were seeded at a density of twenty million cells/150 mm dish. The next day, cells were washed with cold PBS and media volumes were adjusted to 10 ml/dish. Dishes were then uncovered and irradiated with 150 mJ/cm^2 of […] (254 nm) in a crosslinker device (Stratalinker). Cells were then harvested and centrifuged at 2000 RPM at 4° C. for 5 minutes. Cell pellets were resuspended in 1 ml of NP-40 lysis buffer (20 mM Tris-HCl at pH 7.5, 100 mM KCl, 5 mM MgCl2, and 0.5% NP-40) with 1 μl protease inhibitor and 1 mM DTT, incubated on ice for ten minutes, and then centrifuged at 10,000 RPM for 15 minutes at 4° C. Supernatants were collected, 1 U/μl RNase T1 was added, then cell lysates were incubated at 22° C. for 30 minutes. Protein G Beads were resuspended in 100 μls NT2 buffer (50 mM Tris-HCl at pH 7.5, 150 mM NaCl,1 mM MgCl2, 0.05% NP-40) with 5 μg of respective antibodies, then rotated for one hour at room temperature. Cell lysates were added to the beads and incubated for three hours at 4° C., the beads were washed with NT2 buffer, and then incubated with 20 units RNAse-free DNase I for 15 minutes at 37° C. in a thermomixer, shaking slowly. […] (141 μls NP-40 lysis buffer, 0.1% SDS, 0.5 mg/ml Proteinase K) was then added and incubated for 15 minutes at 55° C. in a thermomixer, shaking at maximum speed. […]
# MM cell lines = test: Apoptosis after LNA ASO-mediated CELF2 knockdown; conditions: MM cell lines (U266B1 in FIG. 12B); vs control LNA ASO
# LINC01432 [4] = test: RT-qPCR of LINC01432 expression after LNA ASO transfection; conditions: RPMI 8226 cells; 100 nM ASO, 48-72 hours; vs control LNA ASO; FIG. 5A
# Experimental: (§1) Locked nucleic acid GapmeR antisense oligonucleotides (LNA ASOs) targeting LINC01432 (Qiagen, cat #3653410) and CELF2 (Qiagen, cat #339511), and negative control LNA ASOs (Qiagen, cat #148759394), were designed using the Qiagen Antisense LNA GapmeR Custom Builder (https://www.qiagen.com), sequences are listed in Table 2. RPMI 8226 cells were seeded at a density of 500,000 cells/well in 6-well plates, transfected with respective ASOs at 100 nM concentration using Lipofectamine 2000, and incubated for 48-72 hours. Cells were harvested and target knockdown was validated via RT-qPCR.
# RPMI 8226 cells [5] = test system: RPMI 8226 cells
# Experimental: as §1
# (§2) We used the ApoTox-Glo Triplex Assay (Promega, Madison, WI) to simultaneously measure viability, cytotoxicity, and apoptosis in the same sample. We seeded 20,000 cells/well of Control CRISPR/Cas9, LINC01432 knockdown CRISPR/Cas9, empty vector, LINC01432 overexpression, or wild-type RPMI 8226 cells in triplicate into a 96-well plate at 100 uls complete media per well. We began by first adding 20 ul of Viability/Cytoxicity reagent to all wells, and briefly mixing for ˜30 seconds. Plates were then placed in a 37° C. incubator for one hour. Next, we measured the intensity of fluorescence (relative fluorescence units) using 400Ex/505Em (viability) and 485Ex/520Em (Cytotoxicity) in Varioskan LUX microplate reader. To measure apoptosis, we next add 100 ul Caspase-Glo 3/7 reagent to the same wells and briefly mixed by orbital shaking ˜20 seconds, followed by incubation at room temp for 30 minutes. Luminescence (relative luminescence units) was then measured using Varioskan LUX microplate reader to detect caspase activation. A similar protocol was used to detect the proliferation of cells treated with Melphalan at increasing concentrations (Sigma Aldrich, St. Louis, MO, cat #M2011) using 10 uls Invitrogen alamarBlue HS Cell Viability Reagent in 90 μls of 25,000 cells with media (Waltham, MA, cat #A50100). Fluorescence was then measured using 560Ex/570Em in a microplate reader.
# RPMI 8226 cells [6] = test: Annexin V and propidium iodide flow cytometry, LNA ASO followed by Melphalan
# Experimental: We measured apoptosis by isolating cells and assessing via flow cytometry using BD Horizon V450 AnnexinV (BD Biosciences, Franklin Lakes, NJ). We seeded 500,000 cells/well in a 6-well plate for 24 hours. Cells were then harvested, and the usual protocol was followed, per manufactures instructions. Briefly, cells were washed twice with PBS, then incubated V450 AnnexinV and Propidium Iodide (ThermoFisher) for fifteen minutes at room temperature in the dark. Apoptosis and DNA content was assessed on a flow cytometer machine (Novios, Becton Dickinson) by the Flow Cytometry Core of Siteman Cancer Center, Washington University in St. Louis. We collected a minimum of 50,000 cells per sample in triplicate. FlowJo Version10 (Becton Dickinson) was used to analyze data.
# RPMI 8226 cells [7] = test: Proliferation (alamarBlue, IC50 assay) of cells treated with LNA ASO and Melphalan
# Experimental: as §2
molecule,measurement,setting,value
"N[C@@H](Cc1ccc(N(CCCl)CCCl)cc1)C(=O)O [melphalan, Melphalan]",LINC01432 expression,LINC01432 [1],increases LINC01432 expression
same,LINC01432 expression by mFISH,"LINC01432 [2]; high-dose melphalan for 24 hours, p=0.001",High expression
same,LINC01432 expression by mFISH,"LINC01432 [2]; high-dose melphalan for 48 hours, p=0.0012",High expression
same,"decrease in binding enrichment compared to control cells, Tiling Primer 1",[3],> 2 Fold Change
same,"decrease in binding enrichment compared to control cells, Tiling Primer 5",[3],> 2 Fold Change
"CELF2 LNA ASO: LNA GapmeR antisense oligonucleotide targeting CELF2, GATGAACTCGTTACGC (SEQ_ID_NO: 33) (antisense GAUGAACUCGUUACGC; LNA gapmer from Qiagen, LNA pattern not given here)",apoptosis,MM cell lines,increased apoptosis
"LINC01432-targeted LNA ASO: LNA GapmeR antisense oligonucleotide targeting LINC01432, TGGAGATTTTGCCATT (SEQ_ID_NO: 31) (antisense UGGAGAUUUUGCCAUU; LNA gapmer, pattern not given here)",LINC01432 expression,LINC01432 [4],confirmed knockdown of LINC01432 expression
same,cytotoxicity,RPMI 8226 cells [5],significant decreases
same,viability,"RPMI 8226 cells [5]; RPMI 8226 cells, vs control LNA ASO, p=0.001, FIG. 5B",significant decreases
same,apoptosis,"RPMI 8226 cells [5]; RPMI 8226 cells, vs control LNA ASO, p=0.017, FIG. 5B",significant increase
same,apoptosis on co-treatment with melphalan,"RPMI 8226 cells [6]; MM cell lines in vitro, co-treatment with high-dose melphalan",increased apoptosis
same,proportion of cells in early apoptosis and necrosis,"RPMI 8226 cells [6]; RPMI 8226 cells, LNA ASO followed by 24 hours of 30 μM Melphalan, vs control LNA ASO, FIG. 5C",increased
same,sensitivity to melphalan,"RPMI 8226 cells [7]; MM cell lines in vitro, with high-dose melphalan",induce sensitivity to melphalan; also recorded: enhanced sensitivity to melphalan
same,proliferation,"RPMI 8226 cells [7]; RPMI 8226 cells, LNA ASO plus Melphalan, vs control LNA ASO, FIG. 5D",decreased proliferation
